Series [1] relates to HeLa. Description: Induction of apoptosis in human HeLa cells assessed as early apoptotic cells at 30 uM incubated for 24 hrs by Annexin V/PI double staining base flow cytometry analysis (reference value: 2.59 %). Format: functional.
Series [2] has as its system HeLa. The series is described as follows: Induction of apoptosis in human HeLa cells assessed as late apoptotic cells at 30 uM incubated for 24 hrs by Annexin V/PI double staining base flow cytometry analysis (reference value: 12.5 %). Format: functional.
The subject of series [3] is HeLa. The series is described as follows: Induction of apoptosis in human HeLa cells assessed as necrotic cells at 30 uM incubated for 24 hrs by Annexin V/PI double staining base flow cytometry analysis (reference value: 2.65 %). Format: functional. Background: In flow cytometry, cells or beads pass a laser one at a time.
Series [4] relates to HeLa. Description: Induction of apoptosis in human HeLa cells assessed as viable cells at 30 uM incubated for 24 hrs by Annexin V/PI double staining base flow cytometry analysis (reference value: 82.3 %). In kind it is functional. The conditions noted are these: read-out: Activity.
Series [5] relates to HeLa. The series is described as follows: Induction of apoptosis in human HeLa cells assessed as early apoptotic cells at 30 uM incubated for 48 hrs by Annexin V/PI double staining base flow cytometry analysis (reference value: 2.59 %). Format: functional.
Series [6] deals with HeLa. Description: Induction of apoptosis in human HeLa cells assessed as late apoptotic cells at 30 uM incubated for 48 hrs by Annexin V/PI double staining base flow cytometry analysis (reference value: 12.5 %). Format: functional.
Series [7] concerns HeLa. The series is described as follows: Induction of apoptosis in human HeLa cells assessed as necrotic cells at 30 uM incubated for 48 hrs by Annexin V/PI double staining base flow cytometry analysis (reference value: 2.65 %). In kind it is functional.
Series [8] has as its system HeLa. Description: Induction of apoptosis in human HeLa cells assessed as viable cells at 30 uM incubated for 48 hrs by Annexin V/PI double staining base flow cytometry analysis (reference value: 82.3 %). Format: functional. The following applies: read-out: Activity.
The test system of series [9] is HeLa. Description: Antitumor activity against human HeLa cells xenografted in BALB/c nude mouse assessed as reduction in tumor volume at 5 mg/kg, iv administered every 3 days for 15 days. The conditions noted are these: time 15.0 day. In kind it is functional, organism-based. In general terms: A xenograft is tissue or cells of one species grown in another, often human tumour cells in immunodeficient mice.

A short description of series [10]: Toxicity in human HeLa cells xenografted in BALB/c nude mouse assessed as change in body weight at 5 mg/kg, iv administered every 3 days for 15 days. In kind it is organism-based. The following applies: in vivo, 360 h, time 15 day.
The nature of series [11]: GSH-mediated prodrug activation assessed as increase in fluorescence intensity at 10 uM measured up to 2 hrs by real time fluorescence spectra.
Series [12] in a line: GSH-mediated prodrug activation assessed as increase in fluorescence intensity at 10 uM measured at pH 5 by real time fluorescence spectra. The conditions noted are these: pH 5, 10 µM.
Series [13] has as its system HepG2. The series is described as follows: Antiproliferative activity against human HepG2 cells assessed as cell growth inhibition at 0.1 to 100 micromol/L measured after 24 hrs by MTT assay relative to control. The following applies: dose 0.1-100 µmol/L. Format: functional, cell-based. In general terms: Tetrazolium dyes change colour on reduction, which living cells bring about.

In series [14] the test system is HepG2. Description: Antiproliferative activity against human HepG2 cells assessed as cell growth inhibition at 0.1 to 100 micromol/L measured after 48 hrs by MTT assay relative to control. Format: functional, cell-based. The following applies: dose 0.1-100 µmol/L.
Series [15] relates to MCF7. The series is described as follows: Antiproliferative activity against human MCF7 cells assessed as cell growth inhibition at 0.1 to 100 micromol/L measured after 24 hrs by MTT assay relative to control. The conditions noted are these: dose 0.1-100 µmol/L. In kind it is functional, cell-based.
The test system of series [16] is MCF7. Description: Antiproliferative activity against human MCF7 cells assessed as cell growth inhibition at 0.1 to 100 micromol/L measured after 48 hrs by MTT assay relative to control. In kind it is functional, cell-based. The following applies: dose 0.1-100 µmol/L.
Series [17] relates to HEK-293T. Description: Antiproliferative activity against human HEK293T cells assessed as cell growth inhibition at 0.1 to 100 micromol/L measured after 24 hrs by MTT assay relative to control. Format: functional, cell-based. The conditions noted are these: dose 0.1-100 µmol/L.
For series [18], the system named is HEK-293T. The series is described as follows: Antiproliferative activity against human HEK293T cells assessed as cell growth inhibition at 0.1 to 100 micromol/L measured after 48 hrs by MTT assay relative to control. Format: cell-based. The following applies: dose 0.1-100 µmol/L.
The subject of series [19] is HeLa. Description: Antiproliferative activity against human HeLa cells assessed as cell growth inhibition at 0.1 to 100 micromol/L measured after 24 hrs by MTT assay relative to control. The following applies: dose 0.1-100 µmol/L. Format: cell-based.
The test system of series [20] is HeLa. Description: Antiproliferative activity against human HeLa cells assessed as cell growth inhibition at 0.1 to 100 micromol/L measured after 48 hrs by MTT assay relative to control. Format: functional, cell-based. The conditions noted are these: dose 0.1-100 µmol/L.
The nature of series [21]: Prodrug activation in human HeLa cells assessed as increase in fluorescence at 10 uM within 6 hrs by confocal laser scanning microscopic method. In kind it is cell-based.
A short description of series [22]: Prodrug activation in human HeLa cells assessed as increase in fluorescence at 10 uM within 6 hrs in the presence of N-ethylmalemide by confocal laser scanning microscopic method. Format: cell-based.
Series [23] is described as follows: Drug uptake in tumor of BALB/c nude mouse xenografted with human HeLa cells 10 uM, iv measured after 24 hrs by fluorescence imaging based IVIS optical imaging analysis. In kind it is ADME, organism-based, Neoplasm. The following applies: in vivo.
A short description of series [24]: Drug uptake in tumor of BALB/c nude mouse xenografted with human HeLa cells 10 uM, iv measured after 6 to 36 hrs by fluorescence imaging based IVIS optical imaging analysis. In kind it is ADME, organism-based, Neoplasm. The following applies: in vivo, time 6-36 hrs.
A short description of series [25]: Toxicity in human HeLa cells xenografted in BALB/c nude mouse assessed as histological changes in liver at 5 mg/kg, iv administered every 3 days for 15 days by H and E staining based microscopic analysis. In kind it is organism-based. The following applies: in vivo, 360 h, time 15 day.
The nature of series [26]: Toxicity in BALB/c nude mouse xenografted with human HeLa cells assessed as histological changes in spleen at 5 mg/kg, iv administered every 3 days for 15 days by H and E staining based microscopic analysis. In kind it is organism-based. The following applies: in vivo, 360 h, time 15 day.
A short description of series [27]: Toxicity in BALB/c nude mouse xenografted with human HeLa cells assessed as histological changes in kidney at 5 mg/kg, iv administered every 3 days for 15 days by H and E staining based microscopic analysis. Format: organism-based. The conditions noted are these: in vivo, 360 h, time 15 day.
Series [28] can be described thus: Toxicity in human HeLa cells xenografted in BALB/c nude assessed as histological changes in heart at 5 mg/kg, iv administered every 3 days for 15 days by H and E staining based microscopic analysis. Format: organism-based. The conditions noted are these: in vivo, 360 h, time 15 day.
Series [29] in a line: Toxicity in human HeLa cells xenografted in BALB/c nude assessed as histological changes in tumor at 5 mg/kg, iv administered every 3 days for 15 days by H and E staining based microscopic analysis. In kind it is organism-based. The conditions noted are these: in vivo, 360 h, time 15 day.
The nature of series [30]: GSH-mediated prodrug activation assessed as increase in fluorescence intensity at 10 uM by UV-vis absorption spectroscopy.
Series [31] in a line: GSH-mediated prodrug activation assessed as increase in fluorescence intensity at 10 uM measured at 525 nm emission in presence of 0 to 500 uM of GSH by UV-vis absorption spectroscopy.

Activity calls are given as the source filed them. The rule behind the calls is not given here.

Take `CC(=O)O[C@H]1C(=O)[C@@]2(C)[C@H]([C@H](OC(=O)c3ccccc3)[C@]3(O)C[C@H](OC(=O)[C@H](O)[C@@H](NC(=O)c4ccccc4)c4ccccc4)C(C)=C1C3(C)C)[C@]1(OC(C)=O)CO[C@@H]1C[C@@H]2O` [PACLITAXEL]: the Activity with HeLa [1] came out at 10.6%; with HeLa [2], 34.7%; in the series with HeLa [3], 2.24%; with HeLa [5], 4.55%; in the series with HeLa [6], 66.6%; in the series on HeLa [7], 2.12%. The Activity entry in [10] is given as “Non-Toxic”. For the same compound, the viability at 30 µM was found to be 52.4% in the series on HeLa [4] and 26.7% in the series on HeLa [8]. For the same compound, the outcome in the series on HeLa [9] was Active.

Take `COc1ccc(OC(=O)CCCSSCCCC(=O)O[C@@H](C(=O)O[C@H]2C[C@@]3(O)[C@@H](OC(=O)c4ccccc4)[C@@H]4[C@]5(OC(C)=O)CO[C@@H]5C[C@H](O)[C@@]4(C)C(=O)[C@H](OC(C)=O)C(=C2C)C3(C)C)[C@@H](NC(=O)c2ccccc2)c2ccccc2)c(-c2nc3ccccc3s2)c1`: the Drug metabolism result in series [11], in series [12], in series [21], in series [22], in [30] and in series [31] was “Metabolite_Detected” throughout. In addition, the result in the series on HepG2 [13], with HepG2 [14], in the series with MCF7 [15], in the series on MCF7 [16], with HEK-293T [17] and in the series with HeLa [20] was Active. Further, the outcome in the series on HeLa [9] was Active. Further, the Activity entry is “Toxic” in the series on HEK-293T [18]; “Toxic” in the series with HeLa [19]; 6.79% with HeLa [1]; 28.7% in the series with HeLa [2]; 3.59% in the series on HeLa [3]; 14.4% in the series with HeLa [5]. The Activity is recorded as 72.4% with HeLa [6]; 4.86% in the series with HeLa [7]; “Non-Toxic” in [10]; “Non-Toxic” in [25]; “Non-Toxic” in series [26]; “Non-Toxic” in series [27]. Moreover, the Activity entry in series [28] and in series [29] was “Non-Toxic” in each case. In addition, the viability at 30 µM with HeLa [4] is 60.9%; with HeLa [8], 8.39%. Further, the Drug uptake result in series [23] and in series [24] was “Active” each time.

The values are drawn from ChEMBL document CHEMBL4828737, “Glutathione-responsive prodrug conjugates for image-guided combination in cancer therapy” (Eur J Med Chem, 2021).
